# Experimental data as given in patent US11883526B2 (priority 2019, dated 2024).
# Where “and” joins values, the source holds several entries; their conditions need not be identical. Equal values may be shown once. Entries after “also recorded” stand apart in the source; their conditions may differ. Where a name gives a salt, the structure may show the parent alone. Read-outs that look alike come from different tables or passages of the source. Marks after values point to notes of the source that are not given here.
# Columns and labels:
# [1] = test system: adult female Sprague Dawley rats; settings: 3 hours after a single intraperitoneal injection; cited from earlier work
# [2] = Excerpt: This example provides an LC-MS/MS method for the determination of ketamine and norketamine in sodium heparin human plasma using ketamine-d4 and norketamine-d4 as the respective internal standards (IS).
# [3] = Solubility of esketamine HCl; settings: room temperature, pH 4.5, factor 1.15
# Method: The clinical investigational product is an aqueous solution of the drug substance, esketamine hydrochloride (HCl). This formulation is administered intranasally to patients using a dual nasal spray device, which delivers one spray into each nostril. […] The formulation was stored at 37° C. for stability reasons until dosing.
# [4] = test system: female Sprague-Dawley rats; assay: Single dose neurotoxicity study: brain histopathology (neuronal necrosis in PCG/RSC); settings: single dose up to 72 mg, 48 or 96 hours post-dose; hydrochloride
# Method: In order to prepare for brain histopathology examination, all main study animals were perfused at necropsy. Prior to the perfusion, rats were anesthetized with isoflurane. After injection of 0.1 ml heparin, the blood of the rat was flushed out with a physiological saline solution by intraarterial insertion of a needle in the abdominal aorta. Thereafter the rat was perfused with glutaraldehyde 3% in potassium phosphate 0.09M and 1.4% sucrose. Due to logistic constraints at maximum 30 animals could undergo the whole-body perfusion procedure on a given day. Therefore, a staggered start of treatment was applied to all 5 groups of main study animals. Consequently, subgroups of 4 main study animals of the vehicle- and 36 and 54 mg-dosed groups, and 5 main study animals of the 72 mg-dosed and positive control groups, were dosed on 6 consecutive days, respectively.
# The vehicle control, positive control, and esketamine HCl-dosed animals were sacrificed at either 48 hours (i.e., the first 12 or 15 rats per group) or 96 hours after the dose administration time (i.e., the last 12 or 15 rats per group). The brain tissue of the vehicle control-, positive control- and esketamine HCl-treated rats were processed at the same time and handled in the same way in batches of 4 or 5 animals per group.
# Brain tissue was sampled and processed routinely. […]
# [5] = test system: female Sprague-Dawley rats; assay: Single dose neurotoxicity study: mortality, clinical observations, body weight; type: in vivo, rat; settings: for Clinical observation incidence: Abnormal respiration / Clinical observation incidence: Ataxia / Clinical observation incidence: Catalepsy / Clinical observation incidence: Chromodacryorrhea / Clinical observation incidence: Decreased general activity / Clinical observation incidence: Decubitus / Clinical observation incidence: Increased general activity / Clinical observation incidence: Narrowed palpebral fissure / Clinical observation incidence: Piloerection / Clinical observation incidence: Salivation (out of normal) / Clinical observation incidence: audible respiration / Clinical observation incidence: bradypnoea: single dose
# Method: The injection volume was 5 mL/kg.
# (§1) Body weight and body weight gain were measured daily.
# [6] = test system: female Sprague-Dawley rats; assay: 14-day repeated dose neurotoxicity study: brain histopathology (neuronal necrosis in PCG/RSC); settings: up to 54 mg/day for 14 days, 48 hours after last instillation; hydrochloride
# Method: Due to logistic constraints associated with the whole body perfusion procedure of the animals at necropsy, a staggered start was applied to the study. Consequently, all 5 groups of main study animals were divided into three subgroups of 4 animals each. For each of these subgroups treatment started on a different day. The perfusion procedure is the is the same as described for the single dose study.
# All vehicle- and esketamine HCl-treated animals were sacrificed at 48 hours after the last instillation. […] The brain tissue of the vehicle control-, positive control- and esketamine HCl-treated rats were processed at the same time and handled in the same way in batches of 4 animals per group.
# Brain tissue was sampled and processed routinely. The trimmed and embedded tissue was sectioned and stained with hematoxylin-eosin (HE). Histoprocessing and staining were carried out in three batches of 4 animals per group (each batch thus containing 4 animals from vehicle control-, positive control- and the three esketamine HCl-treated groups).
# Histopathological examination was performed on 7 levels of brain tissue according to Bolon (2013. Toxicol. Pathol. 41(7), 1028-1048) from the vehicle control-, positive control-, and high dose esketamine HCl-treated groups in the single dose study, and in all groups in the repeated dose study.
# The microscopic finding of neuronal necrosis in the PCG/RSC of the brain was graded unilaterally according to the number of necrotic neurons observed over the total length of the PCG/RSC structure visible in the tissue section (usually around 3-5 mm) utilizing the following criteria:
# [7] = test system: female Sprague-Dawley rats; assay: 14-day repeated dose neurotoxicity study: mortality, clinical observations, body weight; type: in vivo, rat; settings: for Clinical observation incidence: Abnormal respiration / Clinical observation incidence: Ataxia / Clinical observation incidence: Chromodacryorrhea / Clinical observation incidence: Decreased general activity / Clinical observation incidence: Decubitus / Clinical observation incidence: Increased general activity / Clinical observation incidence: Salivation (out of normal) / Clinical observation incidence: audible respiration / Clinical observation incidence: bradypnoea: 14 days
# Method: as §1
smiles,measurement,setting,value
"CNC1(c2ccccc2Cl)CCCCC1=O (racemic) [ketamine, reference compound]",ED50 for induction of neuronal vacuolation in the PCG/RSC,[1],47.5 mg/kg body weight
same,QC sample freeze/thaw stability,[2]; freeze (−20° C.)/thaw (ice-water bath),3 freeze (−20° C.)/thaw (ice-water bath) cycles
same,QC sample freeze/thaw stability,[2]; freeze (−20° C.)/thaw (room temperature),3 freeze (−20° C.)/thaw (room temperature) cycles
same,QC sample long-term storage stability,[2]; human plasma QC sample at −20° C.,1552 days at −20 °C
same,QC sample bench-top stability,"[2]; human plasma QC sample, room temperature",68.5 hours at room temp
same,Stock solution stability (spike solutions),[2]; ketamine/norketamine spike solutions at −20° C.,610 days at −20 °C for ketamine/norketamine spike solutions
same,Processed sample stability,[2]; room temperature,146.5 hours at room temperature
same,Whole Blood Stability,[2]; room temperature and ice-water bath (0-4° C.),120 minutes at room temperature and in an ice-water bath (0-4° C.)
same,Stock solution stability,[2]; stock solutions at room temperature under white light,6 h
same,Stock solution stability,[2]; stock solutions at −20° C.,15100 h
"CN[C@]1(c2ccccc2Cl)CCCCC1=O [esketamine HCl, (S)-2-(2-chlorophenyl)-2-(methylamino)cyclohexanone hydrochloride]",maximum solubility expressed as base,[3],180 mg esketamine base/mL
same,histopathological lesions / neuronal necrosis in the brain,[4],no morphological evidence of neuronal degeneration; also recorded: absent; also recorded: No signs of neuronal necrosis; also recorded: no neuropathological lesions
same,"duration of decreased activity, decubitus, bradypnea, catalepsy (anesthesia) after last instillation",[5]; 36 mg,15 to 30 min
same,duration of ataxia after decreased activity had subsided,"[5]; 54 mg, hydrochloride",1.5 to 3 h and 1 to 3 h
same,duration of ataxia after decreased activity had subsided,[5]; 72 mg,≥ 3 h
same,Clinical observation incidence: Abnormal respiration,[5]; 36 mg intranasal,22/24 ***
same,Clinical observation incidence: Ataxia,[5]; 36 mg intranasal,24/24 ***
same,Clinical observation incidence: Catalepsy,[5]; 36 mg intranasal,20/24 ***
same,Clinical observation incidence: Chromodacryorrhea,[5]; 36 mg intranasal,0/24
same,Clinical observation incidence: Decreased general activity,[5]; 36 mg intranasal,23/24 ***
same,Clinical observation incidence: Decubitus,[5]; 36 mg intranasal,23/24 ***
same,Clinical observation incidence: Increased general activity,[5]; 36 mg intranasal,24/24 ***
same,Clinical observation incidence: Narrowed palpebral fissure,[5]; 36 mg intranasal,7/24**
same,Clinical observation incidence: Piloerection,[5]; 36 mg intranasal,0/24
same,Clinical observation incidence: Salivation (out of normal),[5]; 36 mg intranasal,23/24 ***
same,Clinical observation incidence: audible respiration,[5]; 36 mg intranasal,10/24 ***
same,Clinical observation incidence: bradypnoea,[5]; 36 mg intranasal,22/24 ***
same,Clinical observation incidence: Abnormal respiration,[5]; 54 mg intranasal,22/24 ***
same,Clinical observation incidence: Ataxia,[5]; 54 mg intranasal,24/24 ***
same,Clinical observation incidence: Catalepsy,[5]; 54 mg intranasal,23/24 ***
same,Clinical observation incidence: Chromodacryorrhea,[5]; 54 mg intranasal,0/24
same,Clinical observation incidence: Decreased general activity,[5]; 54 mg intranasal,23/24 ***
same,Clinical observation incidence: Decubitus,[5]; 54 mg intranasal,23/24 ***
same,Clinical observation incidence: Increased general activity,[5]; 54 mg intranasal,24/24 ***
same,Clinical observation incidence: Narrowed palpebral fissure,[5]; 54 mg intranasal,10/24 ***
same,Clinical observation incidence: Piloerection,[5]; 54 mg intranasal,0/24
same,Clinical observation incidence: Salivation (out of normal),[5]; 54 mg intranasal,24/24 ***
same,Clinical observation incidence: audible respiration,[5]; 54 mg intranasal,3/24
same,Clinical observation incidence: bradypnoea,[5]; 54 mg intranasal,21/24 ***
same,Clinical observation incidence: Abnormal respiration,[5]; 72 mg intranasal,30/30 ***
same,Clinical observation incidence: Catalepsy,[5]; 72 mg intranasal,30/30 ***
same,Clinical observation incidence: Chromodacryorrhea,[5]; 72 mg intranasal,0/30
same,Clinical observation incidence: Decreased general activity,[5]; 72 mg intranasal,30/30 ***
same,Clinical observation incidence: Decubitus,[5]; 72 mg intranasal,30/30 ***
same,Clinical observation incidence: Increased general activity,[5]; 72 mg intranasal,29/30 ***
same,Clinical observation incidence: Narrowed palpebral fissure,[5]; 72 mg intranasal,22/30 ***
same,Clinical observation incidence: Piloerection,[5]; 72 mg intranasal,0/30
same,Clinical observation incidence: Salivation (out of normal),[5]; 72 mg intranasal,29/30 ***
same,Clinical observation incidence: audible respiration,[5]; 72 mg intranasal,2/30
same,Clinical observation incidence: bradypnoea,[5]; 72 mg intranasal,30/30 ***
same,mortality,"[5]; single intranasal dose 72 mg, within 30 minutes",two main study animals and two satellite TK animals died
same,mortality,[5]; single intranasal dose up to 54 mg,No test article related mortality
same,histopathological lesions / neuronal necrosis in the brain,[6],absence of neuronal necrosis; also recorded: No histopathological lesions
same,Clinical observation incidence: Abnormal respiration,[7]; 18 mg/day intranasal,2/12
same,Clinical observation incidence: Ataxia,[7]; 18 mg/day intranasal,12/12***
same,Clinical observation incidence: Chromodacryorrhea,[7]; 18 mg/day intranasal,0/12
same,Clinical observation incidence: Decreased general activity,[7]; 18 mg/day intranasal,5/12
same,Clinical observation incidence: Decubitus,[7]; 18 mg/day intranasal,0/12
same,Clinical observation incidence: Increased general activity,[7]; 18 mg/day intranasal,12/12***
same,Clinical observation incidence: Salivation (out of normal),[7]; 18 mg/day intranasal,12/12***
same,Clinical observation incidence: audible respiration,[7]; 18 mg/day intranasal,2/12
same,Clinical observation incidence: bradypnoea,[7]; 18 mg/day intranasal,0/12
same,Clinical observation incidence: Abnormal respiration,[7]; 36 mg/day intranasal,11/12***
same,Clinical observation incidence: Ataxia,[7]; 36 mg/day intranasal,12/12***
same,Clinical observation incidence: Chromodacryorrhea,[7]; 36 mg/day intranasal,0/12
same,Clinical observation incidence: Decreased general activity,[7]; 36 mg/day intranasal,12/12***
same,Clinical observation incidence: Decubitus,[7]; 36 mg/day intranasal,2/12
same,Clinical observation incidence: Increased general activity,[7]; 36 mg/day intranasal,12/12***
same,Clinical observation incidence: Salivation (out of normal),[7]; 36 mg/day intranasal,12/12***
same,Clinical observation incidence: audible respiration,[7]; 36 mg/day intranasal,6/12**
same,Clinical observation incidence: bradypnoea,[7]; 36 mg/day intranasal,11/12***
same,Clinical observation incidence: Abnormal respiration,[7]; 54 mg/day intranasal,12/12***
same,Clinical observation incidence: Ataxia,[7]; 54 mg/day intranasal,12/12***
same,Clinical observation incidence: Chromodacryorrhea,[7]; 54 mg/day intranasal,0/12
same,Clinical observation incidence: Decreased general activity,[7]; 54 mg/day intranasal,12/12***
same,Clinical observation incidence: Decubitus,[7]; 54 mg/day intranasal,8/12***
same,Clinical observation incidence: Increased general activity,[7]; 54 mg/day intranasal,12/12***
same,Clinical observation incidence: Salivation (out of normal),[7]; 54 mg/day intranasal,12/12***
same,Clinical observation incidence: audible respiration,[7]; 54 mg/day intranasal,6/12**
same,Clinical observation incidence: bradypnoea,[7]; 54 mg/day intranasal,12/12***
same,mortality,[7]; up to 54 mg/day for 14 days,No test article related mortality
